{
  "source": "patent US20050124638A1",
  "about": "“Benzimidazoles and analogs thereof as antivirals” (priority 2003, published 2005)",
  "key": {"[1]": {"target": "HCV IRES stem IIa RNA target", "test": "Mass spectrometry based binding assay"}, "[2]": {"system": "HCV RNA levels in Ntat2ANeo replicon containing cell line", "test": "Replicon assay (Ntat2ANeo replicon cells, quantitative RT-PCR of HCV RNA)", "format": "cell-based", "settings": "Hepatitis C virus; Table 8"}, "MTT toxicity assay": {"test": "MTT toxicity assay", "format": "cell-based", "from_the_text": "The color was quantified by spectrophotometric means. For each cell type a linear relationship between cell number and absorbance is established, enabling quantification of changes of proliferation."}, "[3]": {"test": "Single dose in vivo pharmacokinetic study", "settings": "rats, single 3.0 mg/kg IV, mean", "method": "A single dose pharmacokinetic study was performed to investigate the pharmacokinetics of representative compounds. Of particular interest was […] the ability of the compounds to accumulate in liver, which is the target tissue for HCV chemotherapy as it is the primary reservoir of virus. 3-4 rats per group were administered a single dose (3 mg/kg intravenously, IV or 6 mg/kg orally, PO). Blood samples were taken at 0.25, 0.5, 1, 2, 3, 4, 6, and 8 h timepoints, and pharmacokinetic parameters calculated. Both representative compounds were rapidly distributed to tissues, as evidenced by the high clearance rates and volumes of distribution, and low levels of excretion (ca 10% of total drug in urine and feces at 8 h). Major tissues were examined for presence of drug. […] The tissue accumulation for the IV dose is shown in FIG. 1, as a function of concentration and percent of total administered dose."}, "[4]": {"settings": "Table 8, read-out: Kd to IIa target"}, "[5]": {"settings": "constrained vs unconstrained N1/N2 side chains, read-out: KD"}},
  "note": "Read-outs that look alike come from different tables or passages of the source.",
  "data": [
    {"compound": "CN(C)CC1CNc2nc3ccc(OCCCN(C)Cc4cccs4)cc3n2C1", "note": "(centres unmarked) [IBIS00554886]", "values": [
      {"measurement": "Kd", "setting": "[1]; [4]", "result": 5, "unit": "µM"},
      {"measurement": "IC50", "setting": "[2]", "result": 15.3, "unit": "µM"},
      {"measurement": "CC50 at 48 h", "setting": "MTT toxicity assay", "result": "> 100", "unit": "µM"}
    ]},
    {"compound": "CN(C)CC1CNc2nc3ccc(OCCCN(C)Cc4nccs4)cc3n2C1", "note": "(centres unmarked) [IBIS00554888]", "values": [
      {"measurement": "Kd", "setting": "[1]; [4]", "result": 8.8, "unit": "µM"},
      {"measurement": "IC50", "setting": "[2]", "result": "> 100", "unit": "µM"},
      {"measurement": "CC50 at 48 h", "setting": "MTT toxicity assay", "result": "> 100", "unit": "µM"}
    ]},
    {"compound": "CN(C)CC1CNc2nc3ccc(OCCCN(C)Cc4ccc(CO)o4)cc3n2C1", "note": "(centres unmarked) [IBIS00554889]", "values": [
      {"measurement": "Kd", "setting": "[1]; [4]", "result": 5.9, "unit": "µM"},
      {"measurement": "IC50", "setting": "[2]", "result": 57.9, "unit": "µM"},
      {"measurement": "CC50 at 48 h", "setting": "MTT toxicity assay", "result": "> 100", "unit": "µM"}
    ]},
    {"compound": "CN(C)CC1CNc2nc3ccc(OCCCN(C)Cc4cccc(Br)n4)cc3n2C1", "note": "(centres unmarked) [IBIS00560002]", "values": [
      {"measurement": "Kd", "setting": "[1]; [4]", "result": 110, "unit": "µM"},
      {"measurement": "IC50", "setting": "[2]", "result": 11.6, "unit": "µM"},
      {"measurement": "CC50 at 48 h", "setting": "MTT toxicity assay", "result": "> 100", "unit": "µM"}
    ]},
    {"compound": "CN(C)CCCn1c(N)nc2ccc3c(c21)CC(CN(C)C)CO3", "note": "(centres unmarked) [IBIS00560020]", "values": [
      {"measurement": "Kd", "setting": "[1]; [4]", "result": 2.2, "unit": "µM"},
      {"measurement": "IC50", "setting": "[2]", "result": 9, "unit": "µM"},
      {"measurement": "CC50 at 48 h", "setting": "MTT toxicity assay", "result": "> 100", "unit": "µM"}
    ]},
    {"compound": "CN(C)CCCn1c(N)nc2ccc3c(c21)CC(CCN)CO3", "note": "(centres unmarked) [IBIS00560024]", "values": [
      {"measurement": "Kd", "setting": "[1]; [4]", "result": 3.4, "unit": "µM"},
      {"measurement": "IC50", "setting": "[2]", "result": "> 100", "unit": "µM"},
      {"measurement": "CC50 at 48 h", "setting": "MTT toxicity assay", "result": "> 100", "unit": "µM"}
    ]},
    {"compound": "CN(C)CCCn1c(N)nc2ccc3c(c21)CC(CN(C)CCN(C)C)CO3", "note": "(centres unmarked) [IBIS00560025]", "values": [
      {"measurement": "Kd", "setting": "[1]; [4]", "result": 9.4, "unit": "µM"},
      {"measurement": "IC50", "setting": "[2]", "result": 71.2, "unit": "µM"},
      {"measurement": "CC50 at 48 h", "setting": "MTT toxicity assay", "result": "> 100", "unit": "µM"}
    ]},
    {"compound": "CN(C)CCCn1c(N)nc2ccc3c(c21)CC(CN(C)Cc1cccn1C)CO3", "note": "(centres unmarked) [IBIS00560031]", "values": [
      {"measurement": "Kd", "setting": "[1]; [4]", "result": 18, "unit": "µM"},
      {"measurement": "IC50", "setting": "[2]", "result": 21.7, "unit": "µM"},
      {"measurement": "CC50 at 48 h", "setting": "MTT toxicity assay", "result": "> 100", "unit": "µM"}
    ]},
    {"compound": "CN(C)CCCn1c(N)nc2ccc3c(c21)CC(CN(C)C)O3", "note": "(centres unmarked) [IBIS00560047]", "values": [
      {"measurement": "CC50 at 48 h", "setting": "MTT toxicity assay", "result": "> 100", "unit": "µM"}
    ]},
    {"compound": "CN(C)CCCn1c(N)nc2ccc3c(c21)CC(CN(C)CCN(C)C)O3", "note": "(centres unmarked) [IBIS00560048]", "values": [
      {"measurement": "Kd", "setting": "[1]; [4]", "result": 11, "unit": "µM"},
      {"measurement": "IC50", "setting": "[2]", "result": 23, "unit": "µM"},
      {"measurement": "CC50 at 48 h", "setting": "MTT toxicity assay", "result": "> 100", "unit": "µM"}
    ]},
    {"compound": "CNCC1COc2ccc3nc(N)n(CCCN(C)C)c3c2C1", "note": "(centres unmarked) [IBIS00560100]", "values": [
      {"measurement": "Kd", "setting": "[1]; [4]", "result": 3.1, "unit": "µM"},
      {"measurement": "IC50", "setting": "[2]", "result": 51.6, "unit": "µM"},
      {"measurement": "CC50 at 48 h", "setting": "MTT toxicity assay", "result": "> 100", "unit": "µM"}
    ]},
    {"compound": "CN(C)CCCn1c(N)nc2ccc3c(c21)CC(CN(C)C(=N)N)CO3", "note": "(centres unmarked) [IBIS00560101]", "values": [
      {"measurement": "Kd", "setting": "[1]; [4]", "result": 5.5, "unit": "µM"},
      {"measurement": "IC50", "setting": "[2]", "result": "> 100", "unit": "µM"},
      {"measurement": "CC50 at 48 h", "setting": "MTT toxicity assay", "result": "> 100", "unit": "µM"}
    ]},
    {"compound": "CN(C)CCCn1c(N)nc2ccc3c(c21)CC(CN(C)Cc1cccn1C)O3", "note": "(centres unmarked) [IBIS00560102]", "values": [
      {"measurement": "Kd", "setting": "[1]; [4]", "result": 10.4, "unit": "µM"},
      {"measurement": "IC50", "setting": "[2]", "result": 3.3, "unit": "µM"},
      {"measurement": "CC50 at 48 h", "setting": "MTT toxicity assay", "result": "> 100", "unit": "µM"}
    ]},
    {"compound": "CN(C)CCCn1c(N)nc2ccc3c(c21)CC(CN)CO3", "note": "(centres unmarked) [IBIS00560121]", "values": [
      {"measurement": "Kd", "setting": "[1]; [4]", "result": 17.2, "unit": "µM"},
      {"measurement": "IC50", "setting": "[2]", "result": 42.7, "unit": "µM"},
      {"measurement": "CC50 at 48 h", "setting": "MTT toxicity assay", "result": "> 100", "unit": "µM"}
    ]},
    {"compound": "CN(C)CCCn1c(N)nc2ccc3c(c21)CC(CN(C)Cc1ncc[nH]1)CO3", "note": "(centres unmarked) [IBIS00560122]", "values": [
      {"measurement": "Kd", "setting": "[1]; [4]", "result": 19.6, "unit": "µM"},
      {"measurement": "IC50", "setting": "[2]", "result": "> 100", "unit": "µM"},
      {"measurement": "CC50 at 48 h", "setting": "MTT toxicity assay", "result": "> 100", "unit": "µM"}
    ]},
    {"compound": "CN(C)CC1COc2ccc3nc4n(c3c2C1)CC(CN(C)C)CN4", "note": "(centres unmarked) [IBIS00560146]", "values": [
      {"measurement": "Kd", "setting": "[1]; [4]", "result": 21.1, "unit": "µM"},
      {"measurement": "IC50", "setting": "[2]", "result": 5.4, "unit": "µM"},
      {"measurement": "CC50 at 48 h", "setting": "MTT toxicity assay", "result": "> 100", "unit": "µM"}
    ]},
    {"compound": "CN(C)CCCn1c(N)nc2ccccc21", "note": "[drawing 62]", "values": [
      {"measurement": "binding percentages of ligand to target", "setting": "[1]; ligand 50 μM, IIa target 2.5 μM, Table 1", "result": 56, "unit": "% binding"}
    ]},
    {"compound": "CN(C)CCCn1c(N)nc2ccccc21", "note": "[drawing 67]", "values": [
      {"measurement": "MS Target Selectivity", "setting": "[1]; Table 2", "result": "˜3"},
      {"measurement": "Kd", "setting": "[1]; Table 2, read-out: Est. KD", "result": "~100", "unit": "µM"}
    ]},
    {"compound": "CN(C)CCCOc1ccc2nc(N)n(CCCN(C)C)c2c1", "note": "[drawing 69]", "values": [
      {"measurement": "MS Target Selectivity", "setting": "[1]; Table 2", "result": "˜15"},
      {"measurement": "Kd", "setting": "[1]; Table 2, read-out: Est. KD", "result": "~10", "unit": "µM"}
    ]},
    {"compound": "CN(C)CCCOc1ccc2nc(N)n(CCCN(C)C)c2c1", "note": "[drawing 70]", "values": [
      {"measurement": "MS Target Selectivity", "setting": "[1]; Table 3", "result": "˜15"},
      {"measurement": "Kd", "setting": "[1]; Table 3, read-out: Est. KD", "result": "~10", "unit": "µM"}
    ]},
    {"compound": "CN(C)CCCn1c(N)nc2ccccc21", "note": "[drawing 71]", "values": [
      {"measurement": "MS Target Selectivity", "setting": "[1]; Table 3", "result": "˜3"},
      {"measurement": "Kd", "setting": "[1]; Table 3, read-out: Est. KD", "result": "~100", "unit": "µM"}
    ]},
    {"compound": "CN(C)CCCOc1ccc2nc3n(c2c1)CC(CN(C)C)CN3", "note": "(centres unmarked) [drawing 124]", "values": [
      {"measurement": "Kd", "setting": "[1]; [5]", "result": 0.67, "unit": "µM"}
    ]},
    {"compound": "CN(C)CCCOc1ccc2nc(N)n(CCCN(C)C)c2c1", "note": "[drawing 125]", "values": [
      {"measurement": "Kd", "setting": "[1]; [5]", "result": 3.6, "unit": "µM"}
    ]},
    {"compound": "CN(C)CC1CNc2nc3ccc(OCCCN(C)Cc4ccccn4)cc3n2C1", "note": "(centres unmarked) [drawing 164]", "values": [
      {"measurement": "clearance", "setting": "[3]; rat, plasma", "result": 160, "unit": "mL/min/kg"},
      {"measurement": "Vd", "setting": "[3]; rat, plasma, read-out: Vdss", "result": 137, "unit": "L/kg"},
      {"measurement": "% AUC Extrap", "setting": "[3]", "result": 47, "unit": "%"},
      {"measurement": "AUC", "setting": "[3]", "result": 165, "unit": "ng·h/mL"},
      {"measurement": "AUC Extrap", "setting": "[3]", "result": 320, "unit": "ng·h/mL"},
      {"measurement": "Co", "setting": "[3]", "result": 219, "unit": "ng/mL"},
      {"measurement": "MRT", "setting": "[3]", "result": 2, "unit": "h"},
      {"measurement": "T1/2", "setting": "[3]", "result": 14, "unit": "h"}
    ]}
  ]
}
